Assay results from the supplement of paper PMC10307832.

Legend:
Experiment in all cases: relative viability (nuclei count vs DMSO), 5 days (fraction); higher = more cells survive
BI-D1870 + Bortezomib = compound: CC(C)CCN1c2nc(Nc3cc(F)c(O)c(F)c3)ncc2N(C)C(=O)C1C [BI-D1870] + CC(C)C[C@H](NC(=O)[C@H](Cc1ccccc1)NC(=O)c1cnccn1)B(O)O [Bortezomib] (partner 0.002 µM)
How it was run: (§1)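 One day after seeding in 1536-well plates, lung cancer cell lines were dosed by pin tool. Dosing was either single-drug or a fixed anchor-drug dose plus five library-drug doses (not always all listed) in √10 steps. After 5 days, nuclei were stained in one fix-and-stain step and counted on 4× images, and relative viability is the nuclei count of treated wells over that of vehicle wells, given as the median of duplicate plates.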

Zebularine + Bortezomib = compound: O=c1ncccn1[C@@H]1O[C@H](CO)[C@@H](O)[C@H]1O [Zebularine] + CC(C)C[C@H](NC(=O)[C@H](Cc1ccccc1)NC(=O)c1cnccn1)B(O)O [Bortezomib] (partner 0.002 µM)
How it was run: as §1

Zebularine + AZD7762 = compound: O=c1ncccn1[C@@H]1O[C@H](CO)[C@@H](O)[C@H]1O [Zebularine] + NC(=O)Nc1cc(-c2cccc(F)c2)sc1C(=O)N[C@H]1CCCNC1 [AZD7762] (partner 0.2 µM)
How it was run: as §1

BI-D1870 + Crizotinib = compound: CC(C)CCN1c2nc(Nc3cc(F)c(O)c(F)c3)ncc2N(C)C(=O)C1C [BI-D1870] + C[C@@H](Oc1cc(-c2cnn(C3CCNCC3)c2)cnc1N)c1c(Cl)ccc(F)c1Cl [Crizotinib] (partner 1 µM)
How it was run: as §1

Cell Line	relative viability (BI-D1870 + Bortezomib; first compound 0.04 µM)	relative viability (BI-D1870 + Bortezomib; first compound 0.1265 µM)	relative viability (BI-D1870 + Bortezomib; first compound 0.4 µM)	relative viability (BI-D1870 + Bortezomib; first compound 1.265 µM)	relative viability (BI-D1870 + Bortezomib; first compound 4 µM)	relative viability (Zebularine + Bortezomib; first compound 1 µM)	relative viability (Zebularine + Bortezomib; first compound 3.162 µM)	relative viability (Zebularine + Bortezomib; first compound 10 µM)	relative viability (Zebularine + Bortezomib; first compound 31.62 µM)	relative viability (Zebularine + Bortezomib; first compound 100 µM)	relative viability (Zebularine + AZD7762; first compound 1 µM)	relative viability (Zebularine + AZD7762; first compound 3.162 µM)	relative viability (Zebularine + AZD7762; first compound 10 µM)	relative viability (Zebularine + AZD7762; first compound 31.62 µM)	relative viability (Zebularine + AZD7762; first compound 100 µM)	relative viability (BI-D1870 + Crizotinib; first compound 0.04 µM)	relative viability (BI-D1870 + Crizotinib; first compound 0.1265 µM)	relative viability (BI-D1870 + Crizotinib; first compound 0.4 µM)	relative viability (BI-D1870 + Crizotinib; first compound 1.265 µM)	relative viability (BI-D1870 + Crizotinib; first compound 4 µM)
NCI-H1734	1.21	0.904	0.874	0.893	0.602	0.988	0.86	0.463	0.379	0.346	0.638	0.575	0.366	0.495	0.306	0.806	0.618	0.593	0.664	0.645
HOP-62	0.74	0.812	0.809	0.803	0.456	0.593	0.741	0.547	0.201	0.143	0.649	0.658	0.303	0.307	0.247	1.08	0.986	0.963	1.01	0.915
LOU-NH91	0.485	0.465	0.451	0.484	0.466	0.485	0.464	0.51	0.441	0.492	0.522	0.751	0.568	0.743	0.627	0.8	0.702	0.735	0.75	0.647
ChaGo-K-1	1.03	1.05	0.608	0.942	0.933	1.27	0.982	0.558	0.678	0.284	0.916	0.862	0.427	0.337	0.249	1.19	1.09	1.08	1.06	0.994
PC-14	0.95	0.909	0.809	0.963	0.559	1.05	0.743	0.147	0.115	0.0976	0.471	0.324	0.141	0.144	0.14	1.03	0.909	0.797	0.923	0.768
NCI-H1437	0.539	0.474	0.478	0.466	0.423	0.595	0.474		0.566	0.258	1.16	1.21	0.947	1.16	0.914	1.04	0.811	0.873	0.794	0.677
NCI-H460	1.45	1.01	1.06	0.686	0.51	1.34	1.07	0.241	0.278	0.126	0.781	0.716	0.294	0.434	0.126	1.2	0.76	0.84	0.926	0.14
NCI-H1666	0.871	0.598	0.985	0.879	0.754	0.884	0.805	0.745	0.879	0.612	0.91	0.841	0.726	0.916	0.654	0.932	0.813	1.1	1.04	0.803
